Experimental data as given in patent US5698551A, “Heterocyclic compounds” (Novo Nordisk A/S, priority 1995, dated 1997).

tested on: NMRI female mice; assay: Inhibition of formalin induced pain response in mice; assay type: in vivo; conditions: at 0.1 mg/kg, 1% formalin into left hind paw
Procedure: Formalin induced pain or paw oedema
Values for in vivo inhibition of formalin induced pain or oedema for the compounds of the present invention were assessed in mice essentially by the method of Wheeler-Aceto and Cowan (Agents Action 1991, 34, 265-269).
About 20 g NMRI female mice were injected […] 1% formalin into the left hind paw. The animals were then placed on a heated (31° C.) table, and the pain response was scored. After 1 h they were killed and bled. Left and right hind paws were removed and the weight difference between the paws was used as indication of the oedema response of the formalin injected paw.
Values for inhibition of formalin induced pain response for some representative compounds are recorded in table 1.

| Structure (SMILES) | % Pain inhibition (inhibition of formalin induced pain response) [%] |
| --- | --- |
| Cl.O=C(O)[C@@H]1CCCN(CCCN2C(=O)c3ccccc3Nc3ccccc32)C1 [Example 1, (R)-1-(3-(11-Oxo-10,11-dihydro-5H-dibenzo[b,e][1,4]diazepin-10-yl)-1-propyl)-3-piperidinecarboxylic acid hydrochloride] | 13 |
| Cl.O=C(O)[C@@H]1CCCN(CCCN2C(=O)c3ccccc3CCc3ccccc32)C1 [Example 2, (R)-1-(3-(6-Oxo-11,12-dihydro-5H-dibenz[b,f]azocin-5-yl)-1-propyl)-3-piperidinecarboxylic acid hydrochloride] | 34 |
| Cl.O=C(O)[C@@H]1CCCN(CCCN2Cc3ccccc3Cc3ccccc32)C1 [Example 3, (R)-1-(3-(6,11-Dihydro-5H-dibenz[b,e]azepin-5-yl)-1-propyl)-3-piperidine-carboxylic acid hydrochloride] | 36 |
| Cl.O=C(O)[C@@H]1CCCN(CCCn2c(=O)c3ccccc3c(=O)c3ccccc32)C1 [Example 4, (R)-1-(3-(6,11-Dioxo-6,11-dihydro-5H-dibenz[b,e]azepin-5-yl)-1-propyl)-3-piperidine-carboxylic acid hydrochloride] | 28 |
| Cl.Cl.O=C(O)[C@@H]1CCCN(CCCN2Cc3ccccc3CCc3ccccc32)C1 [Example 6, (R)-1-(3-(5,6,11,12-Tetrahydro-dibenz[b,f]azocin-5-yl)-1-propyl)-3-piperidinecarboxylic acid dihydrochloride] | 22 |
